Measurements taken from publication PMC8815882, “Screening the pandemic response box identified benzimidazole carbamates, Olorofim and ravuconazole as promising drug candidates for the treatment of eumycetoma” (PLoS Neglected Tropical Diseases, 2022).
Where two headings read alike, the source gives them in different places.

Test system: M. mycetomatis genome strain MM55
Assay: CLSI M38-A2 based in vitro susceptibility screening (XTT or resazurin), growth at fixed concentration
Format: cell-based, Madurella mycetomatis
Conditions: Madurella mycetomatis
[1] = 25 uM, mean of replicates, read-out: Percentage survival at 25um, 25 uM mean
[2] = 25 uM, replicate A, read-out: Percentage survival at 25um, 25 um A
[3] = 25 uM, replicate B, read-out: Percentage survival at 25um, 25 uM B
[4] = 25 uM, replicate C, read-out: Percentage survival at 25um, 25 uM C
[5] = mean of replicates, read-out: Percentage survival at 100um, 100 uM mean
[6] = replicate 1, read-out: Percentage survival at 100um, 100 uM A
[7] = replicate 2, read-out: Percentage survival at 100um, 100 uM A
[8] = replicate 3, read-out: Percentage survival at 100um, 100 uM A
[9] = replicate 1, read-out: Percentage survival at 100um, 100 uM A (first replicate column)
[10] = replicate 2, read-out: Percentage survival at 100um, 100 uM A (second replicate column)
[11] = replicate 3, read-out: Percentage survival at 100um, 100 uM A (third replicate column)
[12] = 25 uM, replicate A, M. mycetomatis MM55, read-out: Percentage survival at 25um, 25 um A
[13] = mean of three, M. mycetomatis MM55, read-out: Percentage survival at 100um, 100 uM mean
[14] = replicate 1, M. mycetomatis MM55, read-out: Percentage survival at 100um, 100 uM A (first replicate column)
[15] = replicate 2, M. mycetomatis MM55, read-out: Percentage survival at 100um, 100 uM A (second replicate column)
[16] = replicate 3, M. mycetomatis MM55, read-out: Percentage survival at 100um, 100 uM A (third replicate column)
[17] = 25 uM, mean of three replicates, read-out: Percentage survival at 25um, 25 uM mean
[18] = mean of three replicates, read-out: Percentage survival at 100um, 100 uM mean

Row | SMILES | activity at 25 µM [1] [%] | activity at 25 µM [2] [%] | activity at 25 µM [3] [%] | activity at 25 µM [4] [%] | activity at 100 µM [5] [%] | activity at 100 µM [6] [%] | activity at 100 µM [7] [%] | activity at 100 µM [8] [%] | other results
1 | COc1c(F)c(F)cc2c(=O)c(C(=O)O)cn(C3CC3)c12 [MMV1480967] | 104 | 87.1 | 91 | 135 | 77.9 | 85.8 | 67.1 | 80.8 | 
2 | O=C(c1ccccc1)N1CCN(c2ccccc2NC(=O)C(Cl)(Cl)Cl)CC1 [MMV001014] | 76 | 69 | 93.3 | 65.7 | 78.9 | 98.3 | 71.3 | 67.2 | 
3 | Nc1nc(C(F)(F)F)cc2c1[nH]c(=O)n2Cc1ccccc1 [MMV1634389] | 83.5 | 74.5 | 96.8 | 79.4 | 61.6 |  |  |  | activity at 100 µM [9]: 36.1%; Percent fungal survival at 100 µM [10]: 67.1%; activity at 100 µM [11]: 81.6%
4 | O=C(Nc1ccc(F)cc1)c1nn(-c2ccccc2)c(=O)cc1Cl [MMV1578555] | 76.7 | 84.2 | 79.1 | 66.7 | 1.51 | 0.758 | 0.453 | 3.31 | 
5 | NC(=O)c1cnc2ccc(S(=O)(=O)c3ccccc3)cc2c1Nc1ccc(O)cc1 [MMV1580848] |  |  |  |  |  |  |  |  | activity at 25 µM (25 uM, mean of three, M. mycetomatis MM55, read-out: Percentage survival at 25um, 25 uM mean): 78.8%; activity at 25 µM [12]: 86.9%; activity at 25 µM (25 uM, replicate B, M. mycetomatis MM55, read-out: Percentage survival at 25um, 25 uM B): 78.3%; activity at 25 µM (25 uM, replicate C, M. mycetomatis MM55, read-out: Percentage survival at 25um, 25 uM C): 71.3%; activity at 100 µM [13]: 83.2%; activity at 100 µM [14]: 89.3%; Percent fungal survival at 100 µM [15]: 86.1%; activity at 100 µM [16]: 74.3%
6 | O=S(=O)(NCB(O)O)c1cc2c(Cl)ccc(Cl)c2s1 [MMV1580841] |  | 79.1 | 74.7 | 54.3 |  |  |  |  | activity at 25 µM (25 uM, mean, read-out: Percentage survival at 25um, 25 uM mean): 69.4%; activity at 100 µM (mean, read-out: Percentage survival at 100um, 100 uM mean): 70.2%; activity at 100 µM (replicate (first column), read-out: Percentage survival at 100um, 100 uM A): 88.2%; activity at 100 µM (replicate (second column), read-out: Percentage survival at 100um, 100 uM A): 69.4%; activity at 100 µM (replicate (third column), read-out: Percentage survival at 100um, 100 uM A): 53%
7 | O=C(O)c1ccc(-c2ccc(O[C@H]3O[C@H](CO)[C@@H](O)[C@H](O)[C@@H]3O)cc2)cc1 [MMV1633970] | 80.8 | 83.4 | 84.3 | 74.7 | 73.9 | 68.9 | 82.1 | 70.6 | 
8 | Cc1[nH]c2ccccc2c1CC(=O)N[C@@H](Cc1ccccc1)C(=O)N(C)c1ccccc1 [MMV1580798] |  | 85.6 | 92.9 | 77.6 |  |  |  |  | activity at 25 µM [17]: 85.4%; activity at 100 µM (first replicate column, read-out: Percentage survival at 100um, 100 uM A): 87.3%; activity at 100 µM [18]: 82.4%; activity at 100 µM (second replicate column, read-out: Percentage survival at 100um, 100 uM A): 79.6%; activity at 100 µM (third replicate column, read-out: Percentage survival at 100um, 100 uM A): 80.5%
9 | C[C@H](NC(=O)C(=O)Nc1ccccc1C(C)(C)C)C(=O)N[C@@H](CC(=O)O)C(=O)COc1c(F)c(F)cc(F)c1F [MMV1580794] |  | 71.1 | -10.5 | 70 |  |  |  |  | activity at 25 µM [17]: 43.5%; activity at 100 µM [18]: 70.9%; activity at 100 µM [9]: 64.2%; Percent fungal survival at 100 µM [10]: 60.7%; activity at 100 µM [11]: 87.8%
10 | Nc1cc(-c2nc3ccccc3[nH]2)n[nH]c1=O [MMV975972] |  | 99 | 101 | 90.7 |  |  |  |  | activity at 25 µM [17]: 97%; activity at 100 µM [18]: 95.6%; activity at 100 µM [9]: 105%; Percent fungal survival at 100 µM [10]: 90.7%; activity at 100 µM [11]: 91.4%
11 | CC1(C)[C@H](C(=O)O)N2C(=O)C[C@H]2S1(=O)=O [MMV637945] |  |  |  |  |  |  |  |  | activity at 25 µM [12]: 97.1%; activity at 100 µM [13]: 98.9%; activity at 100 µM [14]: 99.5%; activity at 100 µM [15]: 112%; activity at 100 µM [16]: 85.4%; activity at 25 µM (read-out: Percentage survival at 25um, 25 uM B): 95.1%; activity at 25 µM (read-out: Percentage survival at 25um, 25 uM C): 84.6%; activity at 25 µM (read-out: Percentage survival at 25um, 25 uM mean): 92.3%
